Data on 51 sequences can be found in US8815503B2, “Compositions and methods for immunostimulatory RNA oligonucleotides” (Rheinische Friedrich-Wilhelms-Universitat Bonn, priority 2005, dated 2014).

One data set has as its system PBMC. Kind of data set: 193 ssRNA 4mer-motif library screen: IL-12 (IL-12p40) production in PBMC of six donors, poly-L-Arg complexation, ELISA at 44 hours, IL-12 index and adjusted IL-12 index. Also on record: key to Adjusted IL-12 index Mean: IL-12 index (ratio to 9.2sense) minus donor mean, averaged over 6 donors. The note with it: 193 ssRNA oligonucleotide library; data from six individual donors summarized; ascending order. Type of data set: cell-based, human. How it is done: FIG. 9: PBMC of six different healthy donors were isolated and stimulated with poly-L-arginine complexed ssRNA oligonucleotides in duplicates. 44 hours after stimulation IL-12p40 production was assessed in supernatant via ELISA. For all tested ssRNA oligonucleotides (table 3), the mean values of the measured duplicates were normalized to the positive control ssRNA oligonucleotide 9.2sense (5′-AGCUUAACCUGUCCUUCAA (SEQ ID NO: 194)) by dividing the mean value of tested oligonucleotide by the mean value of 9.2sense (=IL-12 index of a given oligonucleotide). Next, all individual IL-12 indices were adjusted to the mean value of all IL-12 indices by subtracting the mean value of all IL-12 indices from the individual IL-12 index of a given oligonucleotide (=adjusted IL-12 index). Data from six individual donors were summarized and were assorted in ascending order displaying the corresponding SEM (for a complete listing including numerical data see table 4). FIG. 9A discloses SEQ ID NOS 460-509, respectively, in order of appearance. FIG. 9B discloses SEQ ID NOS 510-559, respectively, in order of appearance. FIG. 9C discloses SEQ ID NOS 560-609, respectively, in order of appearance. FIG. 9D discloses SEQ ID NOS 610-652, respectively, in order of appearance.
All 193 ssRNA oligonucleotides were tested on PBMC of six individual healthy donors using poly-L-Arg for complexation. At 44 hours after stimulation with RNA oligonucleotides, supernatants were collected and IL-12 production was measured by ELISA. Prior to statistical analysis the raw data were processed as follows: for each cell culture plate the mean IL-12 value of the experimental duplicates for each tested ssRNA oligonucleotide were normalized to the ssRNA oligonucleotide RNA9.2sense (5′-AGCUUAACCUGUCCUUCAA-3′ (SEQ ID NO: 194)). This standard RNA oligonucleotide was included as a positive control on all cell culture plates. Normalization was performed by calculating the ratio of IL-12 induced by the tested oligonucleotide and IL-12 induced by the standard oligonucleotide RNA9.2sense. Thus, for each tested oligonucleotide in an individual donor a mean ratio of IL-12 induction was obtained. In the following, this mean of the ratios is referred to as IL-12 index (one value of IL-12 index per donor). […] The corresponding IL-12 index of oligonucleotide ANP175 for donor 3 was calculated to be 1.90 (=1725 pg/ml divided by 908 pg/ml).
Next, the means of all IL-12 indices for every individual donor were calculated. Then the adjusted IL-12 indices were calculated as IL-12 index minus the mean of all IL-12 indices of one individual donor. […] The adjusted IL-12 index of ANP175 was calculated: 1.90 minus 0.44=1.46. The adjusted IL-12 indices from all six donors were summarized by calculating the means and the corresponding standard error of mean. The data are depicted in ascending order (FIG. 9A, B, C, D). The adjusted IL-12 indices of the top thirty ssRNA oligonucleotides of all six donors were compared using a two-tailed Student's t-test (FIG. 10). For most combinations tested, a significant difference was observed when the interval between the analyzed pairs was at least eight or nine places in the assortment.
(In general: In an ELISA, binding on a coated surface is turned into a signal by an enzyme label.)
“AAAAAAAUGCUAAAAAAAA (chemistry not given here) [ANP-Oligo 175]”: the “Adjusted IL-12 index Mean” value worked out at 1.85. Take “AAAAAAAGUGGAAAAAAAA (RNA, backbone not given here) [ANP-Oligo 141]”: the “Adjusted IL-12 index Mean” value was 0.5. On to “AAAAAAAACUGAAAAAAAA (RNA, backbone not given here) [ANP-Oligo 024]”, for which the “Adjusted IL-12 index Mean” value is recorded as −0.48. For “AAAAAAAAUAAAAAAAAAA (RNA, backbone not given here) [ANP-Oligo 004]”, the “Adjusted IL-12 index Mean” value is listed as −0.4.

As for “AAAAAAAGAUGAAAAAAAA (RNA, backbone not given here) [ANP-Oligo 108]”, the “Adjusted IL-12 index Mean” value was found to be 0.08. As to “AAAAAAAUUUCAAAAAAAA (RNA, backbone not given here) [ANP-Oligo 191]”, the “Adjusted IL-12 index Mean” value is given as 0.27. With “AAAAAAAACAGAAAAAAAA (RNA, backbone not given here) [ANP-Oligo 015]”, the “Adjusted IL-12 index Mean” value is listed as −0.65. Regarding “AAAAAAAAUACAAAAAAAA (RNA, backbone not given here) [ANP-Oligo 038]”, the “Adjusted IL-12 index Mean” value was −0.32. Turning to “AAAAAAACGAUAAAAAAAA (RNA, backbone not given here) [ANP-Oligo 076]”, the “Adjusted IL-12 index Mean” value was 0.02. Still for that read-out and setting: then “AAAAAAAUUGUAAAAAAAA (RNA, backbone not given here) [ANP-Oligo 190]”, with 1.6; and “AAAAAAAGCGUAAAAAAAA (RNA, backbone not given here) [ANP-Oligo 118]”, with 0.1; and “AAAAAAACCAGAAAAAAAA (RNA, backbone not given here) [ANP-Oligo 063]”, with −0.57.

Regarding “AAAAAAAGGAUAAAAAAAA (RNA, backbone not given here) [ANP-Oligo 124]”, the “Adjusted IL-12 index Mean” value turned out to be 0.63.

In the case of “AAAAAAACUUCAAAAAAAA (RNA, backbone not given here) [ANP-Oligo 095]”, the “Adjusted IL-12 index Mean” value was −0.39.

For “AAAAAAACUCUAAAAAAAA (RNA, backbone not given here) [ANP-Oligo 091]”, the “Adjusted IL-12 index Mean” value is reported as −0.33. Consider “AAAAAAACUACAAAAAAAA (RNA, backbone not given here) [ANP-Oligo 086]”, for which the “Adjusted IL-12 index Mean” value is reported as −0.46. Take “AAAAAAAUGUUAAAAAAAA (RNA, backbone not given here) [ANP-Oligo 181]”: the “Adjusted IL-12 index Mean” value was 0.79.

For the sequence “AAAAAAAACUAAAAAAAAA (RNA, backbone not given here) [ANP-Oligo 007]”, the “Adjusted IL-12 index Mean” value is reported as −0.56. “AAAAAAAUGGGAAAAAAAA (RNA, backbone not given here) [ANP-Oligo 177]”: the “Adjusted IL-12 index Mean” value is listed as −0.35. Consider “AAAAAAAAUUAAAAAAAAA (RNA, backbone not given here) [ANP-Oligo 013]”, for which the “Adjusted IL-12 index Mean” value is recorded as −0.09. Same read-out and setting: then “AAAAAAAGGGCAAAAAAAA (RNA, backbone not given here) [ANP-Oligo 128]”, with −0.64; and “AAAAAAACCACAAAAAAAA (RNA, backbone not given here) [ANP-Oligo 062]”, with −0.66; and “AAAAAAAACACAAAAAAAA (RNA, backbone not given here) [ANP-Oligo 014]”, with −0.64. Consider “AAAAAAACCGUAAAAAAAA (RNA, backbone not given here) [ANP-Oligo 070]”, for which the “Adjusted IL-12 index Mean” value is reported as −0.16.

With “AAAAAAAUUCUAAAAAAAA (RNA, backbone not given here) [ANP-Oligo 187]”, the “Adjusted IL-12 index Mean” value was 0.18. Regarding “AAAAAAACCCCAAAAAAAA (RNA, backbone not given here) [ANP-Oligo 065]”, the “Adjusted IL-12 index Mean” value is on record as −0.59. For “AAAAAAAGGUUAAAAAAAA (RNA, backbone not given here) [ANP-Oligo 133]”, the “Adjusted IL-12 index Mean” value is listed as 1.51.

“AAAAAAAGCCUAAAAAAAA (RNA, backbone not given here) [ANP-Oligo 115]”: the “Adjusted IL-12 index Mean” value turned out to be 0.15. For “AAAAAAAGUUUAAAAAAAA (RNA, backbone not given here) [ANP-Oligo 145]”, the “Adjusted IL-12 index Mean” value is 1.32. “AAAAAAACUCGAAAAAAAA (RNA, backbone not given here) [ANP-Oligo 090]”: the “Adjusted IL-12 index Mean” value was −0.54. Still for that read-out and setting: with “AAAAAAAGACUAAAAAAAA (RNA, backbone not given here) [ANP-Oligo 103]” the figure was −0.25; with “AAAAAAAGAUUAAAAAAAA (RNA, backbone not given here) [ANP-Oligo 109]”, 0.22; with “AAAAAAAUAGCAAAAAAAA (RNA, backbone not given here) [ANP-Oligo 152]”, 0.35. Consider “AAAAAAAAGACAAAAAAAA (RNA, backbone not given here) [ANP-Oligo 026]”, for which the “Adjusted IL-12 index Mean” value is given as −0.6.

“AAAAAAAUACGAAAAAAAA (RNA, backbone not given here) [ANP-Oligo 150]”: the “Adjusted IL-12 index Mean” value is −0.3. As for “AAAAAAAUGCCAAAAAAAA (RNA, backbone not given here) [ANP-Oligo 173]”, the “Adjusted IL-12 index Mean” value worked out at 1.22. On to “AAAAAAAAUAGAAAAAAAA (RNA, backbone not given here) [ANP-Oligo 039]”, for which the “Adjusted IL-12 index Mean” value is on record as −0.05. With “AAAAAAAAGUCAAAAAAAA (RNA, backbone not given here) [ANP-Oligo 035]”, the “Adjusted IL-12 index Mean” value was −0.22. Regarding “AAAAAAACACGAAAAAAAA (RNA, backbone not given here) [ANP-Oligo 054]”, the “Adjusted IL-12 index Mean” value is listed as −0.65. Turning to “AAAAAAAAGAGAAAAAAAA (RNA, backbone not given here) [ANP-Oligo 027]”, the “Adjusted IL-12 index Mean” value is recorded as −0.62. For “AAAAAAAACCUAAAAAAAA (RNA, backbone not given here) [ANP-Oligo 019]”, the “Adjusted IL-12 index Mean” value is −0.51. Same read-out and setting: with “AAAAAAACAGUAAAAAAAA (RNA, backbone not given here) [ANP-Oligo 058]” the figure was 0.22. Still for that read-out and setting: with “AAAAAAAGCAGAAAAAAAA (RNA, backbone not given here) [ANP-Oligo 111]” the figure was −0.32; with “AAAAAAACAGGAAAAAAAA (RNA, backbone not given here) [ANP-Oligo 057]”, −0.6; with “AAAAAAAUCGUAAAAAAAA (RNA, backbone not given here) [ANP-Oligo 166]”, 4.42. For “AAAAAAAACGGAAAAAAAA (RNA, backbone not given here) [ANP-Oligo 021]”, the “Adjusted IL-12 index Mean” value is on record as −0.63. For the sequence “AAAAAAAAUGAAAAAAAAA (RNA, backbone not given here) [ANP-Oligo 012]”, the “Adjusted IL-12 index Mean” value is given as −0.23. On the same count and under the same terms, with “AAAAAAAUUAUAAAAAAAA (RNA, backbone not given here) [ANP-Oligo 184]” the figure was 0.56. Turning to “AAAAAAAACCGAAAAAAAA (RNA, backbone not given here) [ANP-Oligo 018]”, the “Adjusted IL-12 index Mean” value is on record as −0.68. Turning to “AAAAAAAGAGGAAAAAAAA (RNA, backbone not given here) [ANP-Oligo 105]”, the “Adjusted IL-12 index Mean” value was −0.62.

As for “AAAAAAAAGCAAAAAAAAA (RNA, backbone not given here) [ANP-Oligo 008]”, the “Adjusted IL-12 index Mean” value is recorded as −0.61.

Still in this data set, the particulars now being: donor 3; IL-12 index minus mean of all IL-12 indices of the donor.
For the sequence “AAAAAAAUGCUAAAAAAAA (chemistry not given here) [ANP-Oligo 175]”, the “adjusted IL-12 index” value is 1.46.

Still in this data set, the particulars now being: donor 3; poly-L-Arg complexed; 44 hours.
On to “AAAAAAAUGCUAAAAAAAA (chemistry not given here) [ANP-Oligo 175]”, for which the “IL-12 in supernatant, mean of the two raw values of the duplicates” value stood at 1725 pg/mL.

The data set is the same for the next values; noted with them: donor 3; ratio to RNA9.2sense.
As for “AAAAAAAUGCUAAAAAAAA (chemistry not given here) [ANP-Oligo 175]”, the IL-12 index was 1.90.

The same data set, now with this note: summarized from all six donors.
With “AAAAAAAUUGUAAAAAAAA (RNA, backbone not given here) [ANP-Oligo 190]”, the “adjusted IL-12 index” value turned out to be 1.6. Turning to “AAAAAAAUCGUAAAAAAAA (RNA, backbone not given here) [ANP-Oligo 166]”, the “adjusted IL-12 index” value stood at 4.42.
